Data published in patent US11156623B2, “Methods of monitoring safety of quercetin compositions” (PUBLIC JOINT STOCK COMPANY “SCIENTIFIC INDUSTRIAL CENTRE …, priority 2018, dated 2021).
Values after ≈ are worked out from the molar mass of the structure shown. Like-named read-outs stand apart in the source and are kept apart here. One block for each molecule: values may come before it.

Columns and labels:
[1] = cited from earlier work
[2] = Storage stability: degradation products by liquid chromatography with UV detection; assay type: physicochemical
Protocol: (§1) Methods to detect PCA are known in the art, such as by liquid chromatography with UV detection. For example, a solution containing PCA is subjected to liquid chromatography using gradient elution with the following conditions: stainless steel column with stationary phase end-capped octadecylsilyl silica for chromatography R; size (150×3.9) mm, particle size 5 micron. Mobile phase A: 0.1% phosphoric acid v/v; mobile phase B—methanol; column temperature: 25° C.; flow rate: 1 mL/min.; UV detection at 254 nm. Relative retention time is 1.00 for quercetin, and 0.34 for PCA (FIG. 2). Content of PCA relative to quercetin can be calculated by formula (in percentage): […]
as §1, with “detect 2,4,6-THBA” for “detect PCA”, “containing 2,4,6-THBR” for “containing PCA”, “for 2,4,6-trihydroxybenzoic acid” for “for PCA”, “of 2,4,6-trihydroxybenzoic acid” for “of PCA”
Methods to detect DB-DBA are known in the art, such as by liquid chromatography with UV detection. For example, a solution containing DB-DBA is subjected to liquid chromatography using gradient elution with the following conditions: stainless steel column with stationary phase end-capped octadecylsilyl silica for chromatography R; size (150×3.9) mm, particle size 5 microns. Mobile phase A: 0.1% phosphoric acid v/v; mobile phase B—methanol; column temperature: 25° C.; flow rate: 1 mL/min.; UV detection at 254 nm. Relative retention time is 1.00 for quercetin, and 0.77 for DB-DBA (FIG. 15). Content of DB-DBA relative to quercetin can be calculated by formula (in percentage):
For test solution content of one vial with 70 ml of 96% ethanol was transferred to a 100 ml volumetric flask, diluted to 100 ml with the same solvent and mixed. For reference solution a, 1.0 ml of test solution was placed in a 100 ml volumetric flask, diluted to 100 ml with 96% ethanol and mixed. For reference solution b, 10.0 mg working standard of quercetin for system suitability (containing isorhamnetin and kaempferol, PJSC SIC “Borshchahivskiy CPP”, Kiev, Ukraine) was dissolved in 30 ml of 96% ethanol, diluted to 50 ml with the same solvent and mixed. Chromatography was performed on a using a Dionex UltiMate 3000 HPLC system (Thermo Fisher Scientific, Inc., Waltham, Mass.) with DAD and MS detectors (3200 QTRAP System (AB Sciex LLC, Framingham, Mass.)) connected consecutively using gradient elution with the following conditions: • stainless steel column with stationary phase end-capped octadecylsilyl silica for chromatography; size (150×3.9) mm, particle size 5 microns • Mobile phase A: 1.0 mL of phosphoric acid diluted to 1000 mL with water for chromatography, mixed and degassed; • Mobile phase B: methanol gradient grade; • Column temperature: 25° C. • Flow rate: 1 mL/min.; • Detection at 254 nm; • injection volume: 10 microL.
Inject test solution and reference solution (a). Peaks of quercetin and kaempferol as references were determined by relative retention times of 1.00 and 1.11
Vials containing (group 1) a lyophilized quercetin (10%)/PVP (90%) composition in an air atmosphere and (group 2) vials containing a lyophilized quercetin (10%)/PVP (90%) composition in a nitrogen gas atmosphere were stored at room temperature. Samples were obtained for each group at the indicated time points (0, 3, 6, 9, 12, 18, 24, and 36 months) and assayed for content of protocatechuic acid by chromatography as described above. Data from 3 independent experiments are shown. […]

[3] = humans, cited from earlier work
[4] = system: MDA-MB231 human breast cancer cells; test: Cell viability assay (CellTiter 96 AQueous One) in MDA-MB231; assay type: cell-based; conditions: MDA-MB-231, MDA-MB231, 72 h
Protocol: Toxicity of DB-DBA (2-(3,4-dihydroxybenzoyloxy)-4,6-dihydroxybenzoic acid) was assessed in 96-well plate (Thermo Fisher, Walthman, Mass.) on 1×10^3 MDA-MB231 human breast cancer cells/well. DB-DBA was diluted in to concentrations from 500 to 0 ug/ml. The plate was incubated at 37° C. for 72 h. Cell viability was measured in a CellTiter 96® AQueous One Solution Cell Proliferation Assay (Promega, Madison, Wis.), according to the manufacturer's protocol. The absorbance at 490 nm is determined spectrophotometrically and IC50 was calculated to be 75 microgram/ml.

[5] = human
Protocol: Potential human toxicity of 2,4,6-THBA can be related to its toxicity based on studies with Daphnia. Toxicity of various compounds in Daphnia (48 h immobilization test) correlated to toxicity in humans (determined as reference dose for human oral exposure, RfD) (Martins et al., 2007).

HCT-116 human cells = conditions: cited from earlier work
Daphnia magna [6] = conditions: cited from earlier work; for EC50 at 48 h: Daphnia magna mobility
Daphnia magna [7] = test: Daphnia magna mobility assay; conditions: 48 h
Protocol: Toxicity is determined using a Daphnia magna mobility assay as described (Kamaya et al., 2005). Neonates (<24 h old) from 2-3-week-old mothers are placed in a 50 ml glass beaker containing 40 ml of a test solution. A sample of solid form quercetin (10%)/PVP (90%) composition containing 2,4,6-trihydroxybenzoic acid is resuspended and introduced at increasing dilutions. All experiments for exposure and controls without chemicals are made in four replicates and performed at 21±0.3° C. under 16 h light:8 h dark photoperiod. Immobility is used as the endpoint for determining acute toxicity; the daphnids showing no movement within 15 s after gentle stirring are defined to be immobile. After 24 and 48 h, the number of immobile daphnids is recorded to determine the concentration able to achieve 50% immobilization and it is indicated as EC50.

[8] = system: Pseudokirchneriella subcapitata
[9] = system: Pseudokirchneriella subcapitata; conditions: cited from earlier work
[10] = system: cyclin-dependent kinases CDK1, 2, 4, 6; conditions: purified CDKs in vitro; cited from earlier work
[11] = system: retinal pigmented epithelial cells (ARPE-19); conditions: ARPE-19 normal cell line; cited from earlier work
[12] = system: human lymphoblastoid TK6 cells; conditions: cited from earlier work
[13] = system: human lymphoblastoid cell line K562; conditions: cited from earlier work
mice = conditions: cited from earlier work
[14] = system: HeLa, MCF7, HepG2, A549, LNCaP human cell lines; conditions: cited from earlier work
OVCAR3 human cell line = conditions: OVCAR3, 48 h; read-out: EC50, loss of viability; cited from earlier work
LNCaP human cell line = conditions: 48 h, read-out: EC50, loss of viability; cited from earlier work
[15] = 36 months storage at 20-25° C., air

SMILES: O=c1c(O)c(-c2ccc(O)c(O)c2)oc2cc(O)cc(O)c12 [quercetin, 2-(3,4-dihydroxyphenyl)-3,5,7-trihydroxy-4H-chromen-4-one]
RfD / toxicity in humans [1]: more than 15 mg/kg/day | decrease of 2,4,6-THBA concentration by air substitution with nitrogen gas [2]: 7 fold | protocatechuic acid accumulation ([2]; 3 months storage at 20-25° C., air): about 0.1 % (w/w) protocatechuic acid/quercetin | 2,4,6-THBA accumulation ([2]; 6 months storage at 20-25° C., air): about 0.1 % (w/w) 2,4,6-trihydroxybenzoic acid/quercetin | protocatechuic acid formation ([2]; 12 months storage, ambient conditions): above 0.4 % of quercetin content | 2,4,6-THBA formation ([2]; 24 months storage, ambient conditions, air): 0.33 % of quercetin content | 2,4,6-THBA accumulation [2, 15]: about 0.5 % 2,4,6-trihydroxybenzoic acid/quercetin | protocatechuic acid accumulation [2, 15]: about 0.9 % protocatechuic acid/quercetin | 2,4,6-THBA concentration relative to LC50 in 48 h Daphnia immobilization test (lower) ([2]; Daphnia): more than 3 times | 2,4,6-THBA concentration relative to LC50 in 48 h Daphnia immobilization test (higher) ([2]; Daphnia, 24 months): about 2 times | 2,4,6-THBA concentration ([2]; air substituted with nitrogen gas): 0.5 mg/L | 2,4,6-THBA formation ([2]; air substituted with nitrogen gas (FIG. 19)): 0.05% | rate of 2,4,6-THBA accumulation ([2]; room temperature, air): ~0.15 % of quercetin (w/w) per 12 months | rate of DB-DBA accumulation ([2]; room temperature, air): ~1.25 % of quercetin (w/w) per 12 months | elimination half-life ([3]; after ingestion in foods or supplements): 1 to 2 h | bioavailability of quercetin [3]: 0-50%

IC50 [4]: 75 µg/mL (≈ 245 µM)
SMILES: O=C(Oc1cc(O)cc(O)c1C(=O)O)c1ccc(O)c(O)c1 [DB-DBA, 2-(3,4-dihydroxybenzoyloxy)-4,6-dihydroxybenzoic acid]

SMILES: O=C(O)c1c(O)cc(O)cc1O [2,4,6-THBA, 2,4,6-trihydroxybenzoic acid]
RfD of 2,4,6-THBA relative to benzoic acid [5]: more than 50 times | RfD, estimated from Daphnia EC50 [5]: 0.02 mg/kg/day | toxicity of 2,4,6-THBA relative to quercetin [5]: 700 times | cytotoxicity compared to other salicylic acid metabolites (HCT-116 human cells): more cytotoxic | LC50 in 48 h (Daphnia magna [6]; Daphna magna immobilization test): 1.7 mg/L (≈ 9.99 µM) | EC50 at 48 h (Daphnia magna [6]): 1.7 mg/L (≈ 9.99 µM) | toxicity relative to benzoic acid (Daphnia magna [7]): about 500 times | toxicity relative to benzoic acid and its other derivatives [8]: 70 times | EC50, suppression of growth [9]: 0.546 mg/L | inhibitory effect on cyclin-dependent kinases CDK1, 2, 4, 6 [10]: strong inhibitory effect

SMILES: O=C(O)c1cc(O)c(O)c(OC(=O)c2cc(O)c(O)c(O)c2)c1 [DGA, digallic acid]
IC50, cytotoxicity [11]: 47 microgram/mil | IC50 by MTT assay ([12]; Bhouri et al., 2012a): 8.5 microgram/ml | concentrations causing DNA fragmentation, caspase-3/8 activation and PARP cleavage ([12]; TK6): 2.5-10 microgram/ml | concentrations causing DNA fragmentation [13]: 200-800 microgram/ml

SMILES: O=C(O)c1ccccc1 [benzoic acid]
RfD / toxicity in humans [1]: 1 mg/kg/day | EC50 at 48 h (Daphnia magna [6]): 860 mg/L (≈ 7040 µM) | EC50, suppression of growth [9]: 36 mg/L

SMILES: O=C(O)c1ccc(O)c(O)c1 [PCA, 3,4-dihydroxybenzoic acid]
hepatotoxicity (increase in ALT) (mice; acute, 50 mg/kg intraperitoneally): the same effect | hepatotoxicity (increase in ALT) (mice; subchronic, 0.1% in drinking water for 60 days): causes hepatotoxicity | concentration causing apoptosis (DNA fragmentation, caspase 3 activation) [14]: 5 to 8 µM | EC50 (OVCAR3 human cell line): 5 µM | EC50 (LNCaP human cell line): 5 µM
